From patent US11584755B2 (IDEAYA BIOSCIENCES, INC., priority 2017, dated 2023)

What was measured:
[1] = molecular target: hEXO1, Isoform1 (Homo sapiens (Human), UniProt Q9UQ84); assay: Enzymatic IC50 assay, FAM-labeled DNA oligomer substrate, fluorescence intensity (EXO1); format: biochemical; conditions: hEXO1 6 nM, substrate 30 nM, reaction time 60 minutes, 23° C.
Description: (§1) FEN1, EXO1 or XPG enzyme was incubated with compound or vehicle (DMSO) and the FAM-labeled DNA oligomer substrate in a microtiter plate. The stop buffer contains EDTA to stop the enzymatic reaction. The plate is read for fluorescence intensity. The high control (DMSO) with high fluorescence intensity represents no inhibition of enzymatic reaction while the low control (10 μM) with low fluorescence intensity represents full inhibition of enzymatic reaction.
(§2) • FEN1 • hFEN1: 70 pM • Substrate: 100 nM • Reaction time: 20 minutes • EXO1 • hEXO1: 6 nM, Isoforml • Substrate: 30 nM • Reaction time: 60 minutes • XPG • hXPG: 100 nM • Substrate: 100 nM • Reaction time: 120 minutes
(§3) Annealing Buffer: 50 mM Tris-HCl, 50 mM NaCl, 1 mM DTT Assay buffer: 50 mM Tris-HCl pH 8.0, 10 mM MgCl2, 0.01% BSA, 1 mM DTT Stop buffer: 50 mM EDTA in assay buffer Temperature: 23° C. Total volume: 40 μl Controls: • 0% inhibition control: DMSO • 100% inhibition control: 10 μM (final) 5-chloro-3-hydroxy-1,3-dihydroquinazoline-2,4-dione Enzyme Reaction and Detection: • 1. Prepare 25 μM intermediate stock of the substrate by diluting SEQ ID NO:1, SEQ ID NO:2, and SEQ ID NO:3 in annealing buffer, in a PCR tube. • 2. Place the PCR tube on a heat block, heat at 95° C. for 3 minutes, then drop in 0.2° C. increments over 2 minutes, stopping at 25° C. • 3. Remove the tube and let the tube cool at room temperature. • 4. Transfer 10 μL of 3× final concentration test compounds or DMSO to the appropriate wells of a microtiter plate. • 5. Transfer 10 μL of 3× final concentration enzyme in assay buffer or assay buffer alone to the appropriate wells. • 6. Incubate the plate at room temperature for 15 minutes. • 7. Transfer 10 μL of 3× substrate in assay buffer to all the test wells. • 8. Incubate the plate at room temperature for prescribed reaction time. • 9. Centrifuge the plate at 1000 rpm for 1 minute. • 10. Transfer 10 μL of stop buffer to all the test wells. • 11. Centrifuge the plate at 1000 rpm for 1 minute. • 12. Read the plate on a plate reader.

[2] = molecular target: hFEN1 (Homo sapiens (Human), UniProt P39748); assay: Enzymatic IC50 assay, FAM-labeled DNA oligomer substrate, fluorescence intensity (FEN1); format: biochemical; conditions: hFEN1 70 pM, substrate 100 nM, reaction time 20 minutes, 23° C.
Description: as §1, §2, §3

Sequence of hFEN1 (P39748 whole entry): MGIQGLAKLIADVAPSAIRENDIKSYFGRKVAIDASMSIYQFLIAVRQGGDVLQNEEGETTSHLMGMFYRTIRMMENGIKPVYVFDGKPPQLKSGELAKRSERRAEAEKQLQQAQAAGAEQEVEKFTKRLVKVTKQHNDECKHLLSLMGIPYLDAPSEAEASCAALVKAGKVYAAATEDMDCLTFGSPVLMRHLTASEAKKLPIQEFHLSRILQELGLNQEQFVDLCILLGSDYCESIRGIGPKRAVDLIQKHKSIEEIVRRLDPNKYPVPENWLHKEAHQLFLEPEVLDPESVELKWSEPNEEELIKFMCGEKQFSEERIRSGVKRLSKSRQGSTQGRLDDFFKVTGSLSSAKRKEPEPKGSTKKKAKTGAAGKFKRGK
Sequence of hEXO1, Isoform1 (Q9UQ84 whole entry, canonical isoform): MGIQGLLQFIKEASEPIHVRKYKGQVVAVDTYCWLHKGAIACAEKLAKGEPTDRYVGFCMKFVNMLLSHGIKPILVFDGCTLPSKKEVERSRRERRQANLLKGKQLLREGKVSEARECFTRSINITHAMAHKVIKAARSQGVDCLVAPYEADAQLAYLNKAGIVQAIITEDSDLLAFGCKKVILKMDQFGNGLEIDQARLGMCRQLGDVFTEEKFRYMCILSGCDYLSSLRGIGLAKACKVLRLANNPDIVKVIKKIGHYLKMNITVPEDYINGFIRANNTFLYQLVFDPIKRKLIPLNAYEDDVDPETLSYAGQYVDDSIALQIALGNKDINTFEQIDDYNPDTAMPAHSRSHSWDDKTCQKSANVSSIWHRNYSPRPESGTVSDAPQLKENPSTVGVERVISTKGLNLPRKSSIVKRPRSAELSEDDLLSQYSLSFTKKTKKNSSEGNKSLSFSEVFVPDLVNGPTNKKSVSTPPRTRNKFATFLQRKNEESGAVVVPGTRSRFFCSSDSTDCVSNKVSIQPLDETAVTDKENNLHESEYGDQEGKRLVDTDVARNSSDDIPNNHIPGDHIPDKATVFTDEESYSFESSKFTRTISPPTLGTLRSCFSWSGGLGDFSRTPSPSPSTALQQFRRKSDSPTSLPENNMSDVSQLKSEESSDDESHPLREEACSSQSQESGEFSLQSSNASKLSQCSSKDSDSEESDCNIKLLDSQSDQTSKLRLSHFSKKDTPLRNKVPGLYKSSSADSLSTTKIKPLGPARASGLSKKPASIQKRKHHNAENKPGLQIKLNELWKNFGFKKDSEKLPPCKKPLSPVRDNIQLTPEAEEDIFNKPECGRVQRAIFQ

Structure (SMILES)	IC50 [1]	IC50 [2]
Cc1nn(C)cc1Cn1c(=O)c(O)c(C(=O)O)c2sccc21 [Example 162, 4-[(1,3-dimethyl-1H-pyrazol-4-yl)methyl]-6-hydroxy-5-oxo-4,5-dihydrothieno[3,2-b]pyridine-7-carboxylic acid]	2.25 to 10 µM	0.75 to 2.25 µM
CS(=O)(=O)Nc1ccc(-c2ncc(Cn3c(=O)c(O)c(C(=O)O)c4sccc43)s2)cc1 [Example 167, 6-hydroxy-4-({2-[4-(methylsulfonamido)phenyl]thiazol-5-yl}methyl)-5-oxo-4,5-dihydrothieno[3,2-b]pyridine-7-carboxylic acid]	0.75 to 2.25 µM	< 0.2 µM
N#Cc1ccc(Cn2c(=O)c(O)c(C(=O)O)c3sccc32)cc1 [Example 48, 4-(4-cyanobenzyl)-6-hydroxy-5-oxo-4,5-dihydrothieno[3,2-b]pyridine-7-carboxylic acid]	2.25 to 10 µM	2.25 to 10 µM
O=C(O)c1c(O)c(=O)n(Cc2cnc3c(Br)cccn23)c2ccsc12 [Example 164, 4-[(8-bromoimidazo[1,2-a]pyridin-3-yl)methyl]-6-hydroxy-5-oxo-4,5-dihydrothieno[3,2-b]pyridine-7-carboxylic acid]	0.25 to 0.75 µM	0.25 to 0.75 µM
CCOC(=O)c1c(O)c(=O)n(Cc2ccc(N)cc2)c2ccsc12 [Example 41, ethyl 4-(4-aminobenzyl)-6-hydroxy-5-oxo-4,5-dihydrothieno[3,2-b]pyridine-7-carboxylate]	2.25 to 10 µM	0.25 to 0.75 µM
CC(=O)N1CCCC(Cn2c(=O)c(O)c(C(=O)O)c3sccc32)C1 (stereo not shown) [Example 49, 4-((1-acetylpiperidin-3-yl)methyl)-6-hydroxy-5-oxo-4,5-dihydrothieno[3,2-b]pyridine-7-carboxylic acid]	2.25 to 10 µM	2.25 to 10 µM
O=C(O)c1c(O)c(=O)n(Cc2cccc3nonc23)c2ccsc12 [Example 72, 4-(benzo[c][1,2,5]oxadiazol-4-ylmethyl)-6-hydroxy-5-oxo-4,5-dihydrothieno[3,2-b]pyridine-7-carboxylic acid]	2.25 to 10 µM	2.25 to 10 µM
O=C(O)c1c(O)c(=O)n(Cc2cnc(-c3cccc4ncccc34)s2)c2ccsc12 [Example 169, 6-hydroxy-5-oxo-4-{[2-(quinolin-5-yl)thiazol-5-yl]methyl}-4,5-dihydrothieno[3,2-b]pyridine-7-carboxylic acid]	0.75 to 2.25 µM	2.25 to 10 µM
COc1cc(-c2cccn3c(Cn4c(=O)c(O)c(C(=O)O)c5sccc54)cnc23)ccn1 [Example 165, 6-hydroxy-4-{[8-(2-methoxypyridin-4-yl)imidazo[1,2-a]pyridin-3-yl]methyl}-5-oxo-4,5-dihydrothieno[3,2-b]pyridine-7-carboxylic acid]	0.75 to 2.25 µM	0.75 to 2.25 µM
Cn1cc(Cn2c(=O)c(O)c(C(=O)O)c3sccc32)c(-c2ccccc2)n1 [Example 158, 6-hydroxy-4-[(1-methyl-3-phenyl-1H-pyrazol-4-yl)methyl]-5-oxo-4,5-dihydrothieno[3,2-b]pyridine-7-carboxylic acid]	0.75 to 2.25 µM	2.25 to 10 µM
O=C(O)c1c(O)c(=O)n(Cc2cnc(-c3cccc4cnccc34)s2)c2ccsc12 [Example 168, 6-hydroxy-4-{[2-(isoquinolin-5-yl)thiazol-5-yl]methyl}-5-oxo-4,5-dihydrothieno[3,2-b]pyridine-7-carboxylic acid]	2.25 to 10 µM	2.25 to 10 µM
Cn1ncc(Cn2c(=O)c(O)c(C(=O)O)c3sccc32)c1-c1ccccc1 [Example 160, 6-hydroxy-4-[(1-methyl-5-phenyl-1H-pyrazol-4-yl)methyl]-5-oxo-4,5-dihydrothieno[3,2-b]pyridine-7-carboxylic acid]	> 10 µM	> 10 µM
O=C(O)c1c(O)c(=O)n(Cc2cccc([N+](=O)[O-])c2)c2ccsc12 [Example 6, 6-hydroxy-4-[(3-nitrophenyl)methyl]-5-oxo-thieno[3,2-b]pyridine-7-carboxylic acid]	2.25 to 10 µM	0.25 to 0.75 µM
COc1ccc(-c2ncc(Cn3c(=O)c(O)c(C(=O)O)c4sccc43)s2)cc1 [Example 32, 6-hydroxy-4-{[2-(4-methoxyphenyl)thiazol-5-yl]methyl}-5-oxo-4,5-dihydrothieno[3,2-b]pyridine-7-carboxylic acid]	0.75 to 2.25 µM	0.25 to 0.75 µM
Cc1c(Cn2c(=O)c(O)c(C(=O)O)c3sccc32)cnn1C [Example 159, 4-[(1,5-dimethyl-1H-pyrazol-4-yl)methyl]-6-hydroxy-5-oxo-4,5-dihydrothieno[3,2-b]pyridine-7-carboxylic acid]	2.25 to 10 µM	
Cc1nc(Cn2c(=O)c(O)c(C(=O)O)c3sccc32)cs1 [Example 92, 6-hydroxy-4-[(2-methylthiazol-4-yl)methyl]-5-oxo-4,5-dihydrothieno[3,2-b]pyridine-7-carboxylic acid]	> 10 µM	2.25 to 10 µM
CC(=O)N1CCC(Cn2c(=O)c(O)c(C(=O)O)c3sccc32)CC1 [Example 9, 4-[(1-acetyl-4-piperidyl)methyl]-6-hydroxy-5-oxo-thieno[3,2-b]pyridine-7-carboxylic acid]	2.25 to 10 µM	2.25 to 10 µM
O=C(O)c1c(O)c(=O)n(CC2CCCNC2)c2ccsc12 (stereo not shown) [Example 62, 6-hydroxy-5-oxo-4-(piperidin-3-ylmethyl)-4,5-dihydrothieno[3,2-b]pyridine-7-carboxylic acid]	2.25 to 10 µM	2.25 to 10 µM
O=C(O)c1c(O)c(=O)n(Cc2cnn(-c3ccccc3[N+](=O)[O-])c2)c2ccsc12 [Example 107, 6-hydroxy-4-{[1-(2-nitrophenyl)-1H-pyrazol-4-yl]methyl}-5-oxo-4,5-dihydrothieno[3,2-b]pyridine-7-carboxylic acid]		< 0.2 µM
O=C(O)c1c(O)c(=O)n(Cc2cccc(OC(F)(F)F)c2)c2ccsc12 [Example 55, 6-hydroxy-5-oxo-4-(3-(trifluoromethoxy)benzyl)-4,5-dihydrothieno[3,2-b]pyridine-7-carboxylic acid]		0.75 to 2.25 µM
O=C(O)c1c(O)c(=O)n(Cc2ccc3[nH]c(=O)ccc3c2)c2ccsc12 [Example 17, 6-hydroxy-5-oxo-4-[(2-oxo-1H-quinolin-6-yl)methyl]thieno[3,2-b]pyridine-7-carboxylic acid]		0.75 to 2.25 µM
O=C(O)c1c(O)c(=O)n(Cc2cncc3ccccc23)c2ccsc12 [Example 104, 6-hydroxy-4-(isoquinolin-4-ylmethyl)-5-oxo-4,5-dihydrothieno[3,2-b]pyridine-7-carboxylic acid]		2.25 to 10 µM
O=C(O)c1c(O)c(=O)n(Cc2ccccc2Br)c2ccsc12 [Example 35, 4-(2-bromobenzyl)-6-hydroxy-5-oxo-4,5-dihydrothieno[3,2-b]pyridine-7-carboxylic acid]		2.25 to 10 µM
CNC(=O)c1ccc(Cn2c(=O)c(O)c(C(=O)O)c3sccc32)cc1 [Example 67, 6-hydroxy-4-(4-(methylcarbamoyl)benzyl)-5-oxo-4,5-dihydrothieno[3,2-b]pyridine-7-carboxylic acid]		0.25 to 0.75 µM
O=C(O)c1c(O)c(=O)n(Cc2nnc(-c3ccccc3)s2)c2ccsc12 [Example 93, 6-hydroxy-5-oxo-4-[(5-phenyl-1,3,4-thiadiazol-2-yl)methyl]-4,5-dihydrothieno[3,2-b]pyridine-7-carboxylic acid]		< 0.2 µM
CC(C)(C)OC(=O)N1CCCC(Cn2c(=O)c(O)c(C(=O)O)c3sccc32)C1 (stereo not shown) [Example 61, 4-{[1-(tert-butoxycarbonyl)piperidin-3-yl]methyl}-6-hydroxy-5-oxo-4,5-dihydrothieno[3,2-b]pyridine-7-carboxylic acid]		2.25 to 10 µM
COc1cccc(Cn2cc(Cn3c(=O)c(O)c(C(=O)O)c4sccc43)nn2)c1 [Example 150, 6-hydroxy-4-{[1-(3-methoxybenzyl)-1H-1,2,3-triazol-4-yl]methyl}-5-oxo-4,5-dihydrothieno[3,2-b]pyridine-7-carboxylic acid]		< 0.2 µM
O=C(O)c1c(O)c(=O)n(Cc2cnn(Cc3cn4cccnc4n3)c2)c2ccsc12 [Example 139, 6-hydroxy-4-{[1-(imidazo[1,2-a]pyrimidin-2-ylmethyl)-1H-pyrazol-4-yl]methyl}-5-oxo-4,5-dihydrothieno[3,2-b]pyridine-7-carboxylic acid]		< 0.2 µM
O=C(O)c1c(O)c(=O)n(Cc2cnn(-c3ccc(Cl)cc3)c2)c2ccsc12 [Example 105, 4-{[1-(4-chlorophenyl)-1H-pyrazol-4-yl]methyl}-6-hydroxy-5-oxo-4,5-dihydrothieno[3,2-b]pyridine-7-carboxylic acid]		0.25 to 0.75 µM
